Experimental data as given in patent US10442807B2, “Aryl substituted bicyclic compounds as herbicides” (FMC Corporation, priority 2015, dated 2019).

Tests used:
Format in all cases: in vivo
[1] = tested on: foxtail, giant (giant foxtail, Setaria faberii); test: Test A postemergence application, visual injury rating; conditions: approx. 10 d, 0 = no effect, 100 = complete control
How it was run: (§1)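 In a loam soil and sand blend, either planted seeds got a preemergence directed soil spray or plants at the one- to two-leaf stage (2 to 10 cm tall) were sprayed, using test chemicals in a non-phytotoxic solvent mixture with surfactant. After about 10 d in a greenhouse, injury was visually rated against untreated controls on a 0-100 scale.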

[2] = tested on: pigweed (Amaranthus retroflexus); test: as above; conditions: approx. 10 d, 0 = no effect, 100 = complete control
How it was run: as §1

[3] = tested on: blackgrass (Alopecurus myosuroides); test: as above; conditions: approx. 10 d, 0 = no effect, 100 = complete control
How it was run: as §1

kochia (Kochia scoparia) [4] = test: as above; conditions: approx. 10 d, 0 = no effect, 100 = complete control
How it was run: as §1

[5] = tested on: ragweed (common ragweed, Ambrosia elation); test: as above; conditions: approx. 10 d, 0 = no effect, 100 = complete control
How it was run: as §1

[6] = tested on: barnyardgrass (Echinochloa crus-galli); test: as above; conditions: approx. 10 d, 0 = no effect, 100 = complete control
How it was run: as §1

[7] = tested on: ryegrass, Italian (Italian ryegrass, Lolium multiflorum); test: as above; conditions: approx. 10 d, 0 = no effect, 100 = complete control
How it was run: as §1

[8] = tested on: galium (catchweed bedstraw, Galium aparine); test: as above; conditions: approx. 10 d, 0 = no effect, 100 = complete control
How it was run: as §1

corn (Zea mays) = test: as above; conditions: approx. 10 d, 0 = no effect, 100 = complete control
How it was run: as §1

[9] = tested on: wheat (Triticum aestivum); test: as above; conditions: approx. 10 d, 0 = no effect, 100 = complete control
How it was run: as §1

[10] = tested on: foxtail, giant (giant foxtail, Setaria faberii); test: Test A preemergence, directed soil spray, visual injury rating; conditions: approx. 10 d, 0 = no effect, 100 = complete control
How it was run: as §1

[11] = tested on: pigweed (Amaranthus retroflexus); test: as above; conditions: approx. 10 d, 0 = no effect, 100 = complete control
How it was run: as §1

kochia (Kochia scoparia) [12] = test: as above; conditions: approx. 10 d, 0 = no effect, 100 = complete control
How it was run: as §1

[13] = tested on: ragweed (common ragweed, Ambrosia elation); test: as above; conditions: approx. 10 d, 0 = no effect, 100 = complete control
How it was run: as §1

[14] = tested on: barnyardgrass (Echinochloa crus-galli); test: as above; conditions: approx. 10 d, 0 = no effect, 100 = complete control
How it was run: as §1

[15] = tested on: ryegrass, Italian (Italian ryegrass, Lolium multiflorum); test: as above; conditions: approx. 10 d, 0 = no effect, 100 = complete control
How it was run: as §1

[16] = tested on: sedge, umbrella (small-flower umbrella sedge, Cyperus difformis); test: Test B flooded paddy test, visual plant response rating; conditions: 250 g ai/ha; applied to paddy water at 2-leaf stage; rated after 13 to 15 days; scale 0 to 100, 0 is no effect, 100 is complete control
How it was run: (§2)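 Compounds went directly into paddy water with pots flooded 3 cm above soil, that depth held throughout. After 13 to 15 days in the greenhouse, plants were visually rated against untreated controls on a 0 (no effect) to 100 (complete control) scale.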

[17] = tested on: barnyardgrass (Echinochloa crus-galli); test: as above; conditions: 250 g ai/ha; applied to paddy water at 2-leaf stage; rated after 13 to 15 days; scale 0 to 100, 0 is no effect, 100 is complete control
How it was run: as §2

rice (Oryza sativa) = test: as above; conditions: 250 g ai/ha; applied to paddy water at 2-leaf stage; rated after 13 to 15 days; scale 0 to 100, 0 is no effect, 100 is complete control
How it was run: as §2

[18] = tested on: ducksalad (Heteranthera limosa); test: as above; conditions: 250 g ai/ha; applied to paddy water at 2-leaf stage; rated after 13 to 15 days; scale 0 to 100, 0 is no effect, 100 is complete control
How it was run: as §2

| Structure (SMILES) | Foxtail, Giant plant response rating (0 to 100 scale) ([1]; 125 g ai/ha) | Foxtail, Giant plant response rating (0 to 100 scale) ([1]; 500 g ai/ha) | Pigweed plant response rating (0 to 100 scale) ([2]; 125 g ai/ha) | Pigweed plant response rating (0 to 100 scale) ([2]; 500 g ai/ha) | Blackgrass plant response rating (0 to 100 scale) ([3]; 125 g ai/ha) | Blackgrass plant response rating (0 to 100 scale) ([3]; 500 g ai/ha) | Kochia plant response rating (0 to 100 scale) (kochia (Kochia scoparia) [4]; 125 g ai/ha) | Kochia plant response rating (0 to 100 scale) (kochia (Kochia scoparia) [4]; 500 g ai/ha) | Ragweed plant response rating (0 to 100 scale) ([5]; 125 g ai/ha) | Ragweed plant response rating (0 to 100 scale) ([5]; 500 g ai/ha) | Barnyardgrass plant response rating (0 to 100 scale) ([6]; 125 g ai/ha) | Barnyardgrass plant response rating (0 to 100 scale) ([6]; 500 g ai/ha) | Ryegrass, Italian plant response rating (0 to 100 scale) ([7]; 125 g ai/ha) | Ryegrass, Italian plant response rating (0 to 100 scale) ([7]; 500 g ai/ha) | Galium plant response rating (0 to 100 scale) ([8]; 125 g ai/ha) | Galium plant response rating (0 to 100 scale) ([8]; 500 g ai/ha) | Corn plant response rating (0 to 100 scale) (corn (Zea mays); 125 g ai/ha) | Corn plant response rating (0 to 100 scale) (corn (Zea mays); 500 g ai/ha) | Wheat plant response rating (0 to 100 scale) ([9]; 125 g ai/ha) | Wheat plant response rating (0 to 100 scale) ([9]; 500 g ai/ha) | also measured |
| --- | --- | --- | --- | --- | --- | --- | --- | --- | --- | --- | --- | --- | --- | --- | --- | --- | --- | --- | --- | --- | --- |
| Cc1ccc(C2Cn3cnnc3C2C(=O)Nc2cccc(F)c2F)cc1C (centres unmarked) [Compound 16] | 60 | 80 | 0 | 0 | 0 | 60 | 30 | 30 | 0 | 50 | 60 | 80 | 0 | 50 | 40 | 50 | 0 | 70 | 0 | 50 | Foxtail, Giant plant response rating (0 to 100 scale) ([10]; 125 g ai/ha): 90; Foxtail, Giant plant response rating (0 to 100 scale) ([10]; 500 g ai/ha): 90; Pigweed plant response rating (0 to 100 scale) ([11]; 125 g ai/ha): 0; Pigweed plant response rating (0 to 100 scale) ([11]; 500 g ai/ha): 0; Kochia plant response rating (0 to 100 scale) (kochia (Kochia scoparia) [12]; 125 g ai/ha): 70; Kochia plant response rating (0 to 100 scale) (kochia (Kochia scoparia) [12]; 500 g ai/ha): 80; Ragweed plant response rating (0 to 100 scale) ([13]; 125 g ai/ha): 0; Ragweed plant response rating (0 to 100 scale) ([13]; 500 g ai/ha): 50; Barnyardgrass plant response rating (0 to 100 scale) ([14]; 125 g ai/ha): 70; Barnyardgrass plant response rating (0 to 100 scale) ([14]; 500 g ai/ha): 90; Ryegrass, Italian plant response rating (0 to 100 scale) ([15]; 125 g ai/ha): 0; Ryegrass, Italian plant response rating (0 to 100 scale) ([15]; 500 g ai/ha): 60; Plant response rating, Flood, Sedge, Umbrella [16]: 0; Plant response rating, Flood, Barnyardgrass [17]: 50; Plant response rating, Flood, Rice (rice (Oryza sativa)): 15; Plant response rating, Flood, Ducksalad [18]: 75 |
| CSc1ccccc1NC(=O)C1c2nnc(C)n2CC1c1ccc(C)c(C)c1 (centres unmarked) [Compound 14] | 0 | 20 | 0 | 0 | 0 | 20 | 0 | 0 | 0 | 0 | 0 | 20 | 0 | 0 | 0 | 0 | 0 | 0 | 0 | 0 | Foxtail, Giant plant response rating (0 to 100 scale) ([10]; 125 g ai/ha): 0; Foxtail, Giant plant response rating (0 to 100 scale) ([10]; 500 g ai/ha): 60; Pigweed plant response rating (0 to 100 scale) ([11]; 125 g ai/ha): 0; Pigweed plant response rating (0 to 100 scale) ([11]; 500 g ai/ha): 0; Kochia plant response rating (0 to 100 scale) (kochia (Kochia scoparia) [12]; 125 g ai/ha): 0; Kochia plant response rating (0 to 100 scale) (kochia (Kochia scoparia) [12]; 500 g ai/ha): 0; Ragweed plant response rating (0 to 100 scale) ([13]; 125 g ai/ha): 0; Ragweed plant response rating (0 to 100 scale) ([13]; 500 g ai/ha): 0; Barnyardgrass plant response rating (0 to 100 scale) ([14]; 125 g ai/ha): 0; Barnyardgrass plant response rating (0 to 100 scale) ([14]; 500 g ai/ha): 30; Ryegrass, Italian plant response rating (0 to 100 scale) ([15]; 125 g ai/ha): 0; Ryegrass, Italian plant response rating (0 to 100 scale) ([15]; 500 g ai/ha): 0; Plant response rating, Flood, Sedge, Umbrella [16]: 0; Plant response rating, Flood, Barnyardgrass [17]: 20; Plant response rating, Flood, Rice (rice (Oryza sativa)): 0; Plant response rating, Flood, Ducksalad [18]: 60 |
| CCc1ccc(C2Cn3cnnc3C2C(=O)Nc2cccc(F)c2F)cc1 (centres unmarked) [Compound 11] | 40 | 70 | 0 | 0 | 0 | 20 | 40 | 50 | 0 | 30 | 70 | 80 | 0 | 50 | 20 | 50 | 0 | 30 | 0 | 20 | Foxtail, Giant plant response rating (0 to 100 scale) ([10]; 125 g ai/ha): 80; Foxtail, Giant plant response rating (0 to 100 scale) ([10]; 500 g ai/ha): 90; Pigweed plant response rating (0 to 100 scale) ([11]; 125 g ai/ha): 30; Pigweed plant response rating (0 to 100 scale) ([11]; 500 g ai/ha): 30; Kochia plant response rating (0 to 100 scale) (kochia (Kochia scoparia) [12]; 125 g ai/ha): 60; Kochia plant response rating (0 to 100 scale) (kochia (Kochia scoparia) [12]; 500 g ai/ha): 70; Ragweed plant response rating (0 to 100 scale) ([13]; 125 g ai/ha): 0; Ragweed plant response rating (0 to 100 scale) ([13]; 500 g ai/ha): 40; Barnyardgrass plant response rating (0 to 100 scale) ([14]; 125 g ai/ha): 70; Barnyardgrass plant response rating (0 to 100 scale) ([14]; 500 g ai/ha): 90; Ryegrass, Italian plant response rating (0 to 100 scale) ([15]; 125 g ai/ha): 0; Ryegrass, Italian plant response rating (0 to 100 scale) ([15]; 500 g ai/ha): 30; Plant response rating, Flood, Sedge, Umbrella [16]: 70; Plant response rating, Flood, Barnyardgrass [17]: 0; Plant response rating, Flood, Rice (rice (Oryza sativa)): 0; Plant response rating, Flood, Ducksalad [18]: 95 |
| CCc1nnc2n1CC(c1ccc(C(F)(F)F)cc1)C2C(=O)Nc1cccc(F)c1F (centres unmarked) [Compound 8, N-(2,3-difluorophenyl)-3-ethyl-6,7-dihydro-6-[4-(trifluoromethyl)phenyl]-5H-pyrrolo[2,1-c]-1,2,4-triazole-7-carboxamide] | 20 | 60 | 20 | 60 | 0 | 0 | 0 | 40 | 0 | 20 | 20 | 50 | 0 | 0 | 30 | 50 | 0 | 0 | 0 | 0 | Foxtail, Giant plant response rating (0 to 100 scale) ([10]; 125 g ai/ha): 30; Foxtail, Giant plant response rating (0 to 100 scale) ([10]; 500 g ai/ha): 90; Pigweed plant response rating (0 to 100 scale) ([11]; 125 g ai/ha): 20; Pigweed plant response rating (0 to 100 scale) ([11]; 500 g ai/ha): 50; Kochia plant response rating (0 to 100 scale) (kochia (Kochia scoparia) [12]; 125 g ai/ha): 0; Ragweed plant response rating (0 to 100 scale) ([13]; 125 g ai/ha): 0; Ragweed plant response rating (0 to 100 scale) ([13]; 500 g ai/ha): 0; Barnyardgrass plant response rating (0 to 100 scale) ([14]; 125 g ai/ha): 30; Barnyardgrass plant response rating (0 to 100 scale) ([14]; 500 g ai/ha): 70; Ryegrass, Italian plant response rating (0 to 100 scale) ([15]; 125 g ai/ha): 0; Ryegrass, Italian plant response rating (0 to 100 scale) ([15]; 500 g ai/ha): 0; Plant response rating, Flood, Sedge, Umbrella [16]: 0; Plant response rating, Flood, Barnyardgrass [17]: 0; Plant response rating, Flood, Rice (rice (Oryza sativa)): 0; Plant response rating, Flood, Ducksalad [18]: 40 |
